Source: ChEMBL document CHEMBL1134196, “Oxo-piperazine derivatives of N-arylpiperazinones as inhibitors of farnesyltransferase” (Bioorg Med Chem Lett, 2001)

Columns and labels:
[1] = Half life value of the compound; type: ADME; settings: rat
[2] = Partition coefficient (logP); type: physicochemical; settings: octanol/water
Rat1 [3] = assay: Inhibition of anchorage-dependent proliferation of RAT1 v-Ha-ras-transformed cells on poly(HEMA); type: functional, cell-based; settings: Rattus norvegicus
Rattus norvegicus = species: Rattus norvegicus; assay: Concentration at which 80% cultured cells remain viable assessed by MTT staining; type: functional
[4] = Pharmacokinetic data in dogs at dose of 1 mg/kg perorally, and the area under curve (AUC) was reported.; type: ADME, organism-based, Canis lupus familiaris; set-up: dose 1 mg/kg, route oral; settings: dog, in vivo, po
[5] = Maximal plasma concentration required for pharmacokinetic data in dogs at dose of 1 mg/kg perorally; type: ADME, organism-based, Canis lupus familiaris; set-up: dose 1 mg/kg, route oral; settings: dog, po
[6] = biological target: Protein farnesyltransferase (Homo sapiens, UniProt P49354+P49356); assay: Inhibition of [3H]FPP incorporation into recombinant Ras-CVIM by human farnesyl transferase; type: protein-complex assay
Rat1 [7] = assay: Inhibition of RAT1 v-Ha-ras-transformed cell growth in soft agar; type: functional; settings: Rattus norvegicus
[8] = biological target: Geranylgeranyl transferase type I (Homo sapiens, UniProt P49354+P53609); assay: Inhibition of human geranylgeranyltransferase-1; type: protein-complex assay

SMILES | half-life [1] [min] | logP [2] | IC50 (Rat1 [3]) [µM] | IC20 (Rattus norvegicus) [µM] | AUC [4] [µM·h] | Cmax [5] [nM] | IC50 [6] [µM] | IC90 (Rat1 [7]) [µM] | IC50 [8] [µM]
CCCC[C@H]1CN(c2cccc(C)c2C)CC(=O)N1Cc1cncn1Cc1ccc(C#N)cc1 | 138 | > 3.5 | 2.51 | 100 | 3.46 | 960 | 1.3 | 10 | –
N#Cc1ccc(Cn2cncc2CN2CC(=O)N(c3ccccc3)CC2=O)cc1 | – | 0.55 | – | – | – | – | 950 | – | –
N#Cc1ccc(Cn2cncc2C(=O)N2CCN(c3cccc(Cl)c3)CC2)cc1 | – | 2.79 | – | > 100 | – | – | – | 0.1 | –
Cc1cccc(N2CCN(Cc3cncn3Cc3ccc(C#N)cc3)C(=O)C2=O)c1C | 60 | 1.11 | – | 10 | 4.43 | 2290 | 20 | > 1 | –
CCCC[C@H]1CN(c2cccc(C)c2C)C(=O)C(=O)N1Cc1cncn1Cc1ccc(C#N)cc1 | 54 | 3.3 | 15 | 10 | 4.25 | 1950 | 3 | 1 | –
Cc1cccc(N2CCN(Cc3cncn3Cc3ccc(C#N)cc3)CC2=O)c1C | 30 | 2 | 83 | 10 | 1.4 | 1060 | 11 | 1 | –
N#Cc1ccc(Cn2cncc2CN2CCN(c3ccccc3)C(=O)C2=O)cc1 | – | 0.46 | – | – | – | – | 16 | – | > 20
N#Cc1ccc(Cn2cncc2CN2CCN(c3cccc(Cl)c3)C(=O)C2)cc1 [L-778123 FREE BASE] | 47.4 | 2.11 | – | > 100 | 5.3 | 2980 | – | 0.1 | –
N#Cc1ccc(Cn2cncc2CN2CCN(c3cccc(Cl)c3)CC2)cc1 | – | > 3.4 | – | 25 | – | – | 250 | 1 | –
N#Cc1ccc(Cn2cncc2CN2CCN(c3ccccc3)C(=O)C2)cc1 | – | 1.32 | – | – | – | – | 5 | – | 8.7
N#Cc1ccc(Cn2cncc2CN2CCN(c3cccc(Cl)c3)CC2=O)cc1 | 72 | 2.51 | – | > 100 | 8.58 | 3140 | 100 | 1 | –
CCCC[C@H]1CN(c2cccc(C)c2C)C(=O)CN1Cc1cncn1Cc1ccc(C#N)cc1 | 36 | > 3.7 | 28 | 50 | 0.15 | 140 | – | 1 | –
N#Cc1ccc(Cn2cncc2CN2CCN(c3cccc(Cl)c3)C(=O)C2=O)cc1 | 132 | 1.24 | – | > 100 | 12.5 | 3110 | 11 | 1 | –
N#Cc1ccc(Cn2cncc2C(=O)N2CCN(c3cccc(Cl)c3)C(=O)C2)cc1 | – | – | – | > 100 | – | – | 33 | 1 | –
